Here are results for four compounds from patent US20090155279A1, “Pseudomonas Aeruginosa Outer Membrane Protein PA5158” (priority 2005, published 2009).

Values after ≈ are worked out from the molar mass of the structure shown.

The subject of experiment [1] is multidrug resistant Pseudomonas aeruginosa MSC06120 strains. Description: Minimum inhibitory concentrations for MSC06120 strains. The conditions noted are these: read-out: Minimum inhibitory concentration. It counts as cell-based.
The subject of experiment [2] is Pseudomonas aeruginosa PA103 strains (ATCC29260). Description: Enhancement of anti-Pseudomonas aeruginosa activity of gentamicin (viable count). The experiment is classed as cell-based. The conditions noted are these: gentamicin 0.125 μg/ml plus PBS (negative control group), 4 hours at 37° C. Here is the method:
Pseudomonas aeruginosa PA103 strains (ATCC29260) were shake cultured overnight at 37° C. in a Mueller-Hinton liquid medium and diluted to 1×10^5 cfu/ml with the same medium. Then, the strains were shake cultured again at 37° C. Two hours later, gentamicin was added at a concentration of 0.125 μg/ml. Likewise, to a negative control group, PBS was added at a concentration of 300 μg/ml. To antibody-added groups, rat anti-PA5158L1 IgG as the monoclonal antibody produced by the hybridoma deposited under the accession No. FERM-BP-10672, rat anti-PA5158L2 IgG as the IgG fraction purified from the KLH-conjugated peptide (SEQ ID No: 6)-immunized rat sera, and rat anti-PA5158 IgG as the IgG fraction purified from the PA5158 recombinant protein-immunized rat sera were added at each concentration of 300 μg/ml. Then, shake culture was carried out at 37° C. for 4 hours, and the number of viable strains in each group was measured.

For the compound `NCC[C@H](O)C(=O)N[C@@H]1C[C@H](N)[C@@H](O[C@H]2O[C@H](CN)[C@@H](O)[C@H](O)[C@H]2O)[C@H](O)[C@H]1O[C@H]1O[C@H](CO)[C@@H](O)[C@H](N)[C@H]1O` [amikacin], the MIC in experiment [1] was determined as 64 µg/mL (≈ 109 µM).
With `O=C(O)c1cn(C2CC2)c2cc(N3CCNCC3)c(F)cc2c1=O` [ciprofloxacin], the MIC in experiment [1] is over 256 µg/mL.
Still for that read-out and setting: under `C[C@@H](O)[C@H]1C(=O)N2C(C(=O)O)=C(SCCN=CN)C[C@H]12` [imipenem] stands 32 µg/mL (≈ 107 µM).
Regarding gentamicin, the “Number of viable strains” value in experiment [2] is 5.4×10^6 cfu/ml.
